The values that follow come from the supplement of paper PMC11061612.

What all share (experiment): combination Emax (second highest fraction inhibited in the dose matrix, 72 h); higher = more inhibition; extreme values may be limits of the assay
Experiment [1] has as its system MIA-PaCa-2 (Pancreatic Carcinoma). The gist of the method:
(§1)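 After 24 hours at 37°C and 5% CO2 in 1536-well plates, cells in DMEM/F12 or RPMI plus 10% FBS received two-drug dose matrices for 72 hours. Viability came from CellTiter-Glo 2.0 luminescence and was scaled as inhibition, anchored at 0 by vehicle wells and at 1 by blank wells. Combination Emax is taken as the second-highest inhibition in the matrix, and Bliss excess as the observed combination effect less EA + EB − EA·EB, with EA and EB the single-agent effects.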

Experiment [2] deals with EFM-19 (Breast Carcinoma). The method in brief:
as §1

The test system of experiment [3] is NUGC-3 (Gastric Carcinoma). The method in brief:
as §1

In experiment [4] the test system is TK10 (Kidney Carcinoma). The gist of the method:
as §1

For experiment [5], the system named is Ca9-22 (Head and Neck Carcinoma). The gist of the method:
as §1

Experiment [6] relates to SW13 (Other Solid Carcinomas). The method in brief:
as §1

The test system of experiment [7] is AMO-1 (Plasma Cell Myeloma). The gist of the method: as §1
Experiment [8] deals with TGW (Neuroblastoma). The method in brief: as §1
In experiment [9] the test system is D-263MG (Glioblastoma). The method in brief: as §1
The subject of experiment [10] is LU-65 (Non-Small Cell Lung Carcinoma). The gist of the method: as §1
In experiment [11] the test system is YH-13 (Glioblastoma). The gist of the method: as §1
Experiment [12] has as its system MLMA (Other Blood Carcinomas). The method in brief:
as §1

Experiment [13] relates to PWR-1E (Non-Cancerous). The gist of the method: as §1
Experiment [14] has as its system Caov-4 (Ovarian Carcinoma). The method in brief: as §1
The subject of experiment [15] is PANC-04-03 (Pancreatic Carcinoma). The method in brief:
as §1

The test system of experiment [16] is C-4-I (Cervical Carcinoma). The method in brief:
as §1

The test system of experiment [17] is NEC8 (Other Solid Carcinomas). The gist of the method: as §1
The subject of experiment [18] is OSC-20 (Oral Cavity Carcinoma). The method in brief:
as §1

For experiment [19], the system named is VA-ES-BJ (Other Solid Carcinomas). The gist of the method:
as §1

On to `CS(=O)(=O)CCNCc1ccc(-c2ccc3ncnc(Nc4ccc(OCc5cccc(F)c5)c(Cl)c4)c3c2)o1` [Lapatinib] + NC1(c2ccc(-c3nc4ccn5c(=O)[nH]nc5c4cc3-c3ccccc3)cc2)CCC1 [MK-2206] (first compound max 10 µM, 7x7, partner max 10 µM), for which the “combination Emax” value worked out at 0.929 in experiment [1]; 0.792 in experiment [2]; 0.91 in experiment [3]; 0.698 in experiment [4]; 0.971 in [5]; 0.902 in [6]. The “combination Emax” value was 0.963 in experiment [7]; 0.422 in experiment [8]; 0.492 in experiment [9]; 0.649 in [10]; 0.909 in experiment [11]; 0.945 in experiment [12]. Also, the “combination Emax” value in experiment [13] was 0.836; in experiment [14], 0.878; in experiment [15], 0.505.

Turning to `O=C(c1cc(Cc2n[nH]c(=O)c3ccccc23)ccc1F)N1CCN(C(=O)C2CC2)CC1` [Olaparib] + CN(CC[C@H](CSC1=CC=CC=C1)NC2=C(C=C(C=C2)S(=O)(=O)NC(=O)C3=CC=C(C=C3)N4CCC(CC4)[C@H](C5=CC=CC=C5C6=CC=C(C=C6)Cl)O)S(=O)(=O)C(F)(F)F)CCO [AZD4320] (first compound max 10 µM, 7x7, partner max 1 µM), the “combination Emax” value in [1] worked out at 0.184; in experiment [2], 0.428; in [4], 0.128; in experiment [5], 0.349; in [6] it was 0.184; in experiment [7] it was 0.424. For the same molecule, the “combination Emax” value was 0.925 in experiment [8]; 0.0474 in experiment [9]; 0.194 in [10]; 0.401 in experiment [11]; 0.519 in [12]; 0.181 in experiment [14]. Besides, the “combination Emax” value in [15] is 0.121.

Take `O=C(c1cc(Cc2n[nH]c(=O)c3ccccc23)ccc1F)N1CCN(C(=O)C2CC2)CC1` [Olaparib] + COc1nnc2ccc(N3CCC(c4ccc(OCCN5CCN(C)C(=O)[C@H]5C)cc4)CC3)nn12 [AZD5153] (first compound max 10 µM, 7x7, partner max 1 µM): the “combination Emax” value in [1] was determined as 0.852; in [2], 0.367; in experiment [4], 0.482; in [5], 0.625; in experiment [6], 0.309; in experiment [7], 0.882. Further, the “combination Emax” value in experiment [8] is 0.476; in experiment [9], 0.343; in experiment [10] it was 0.49; in [11] it was 0.556; in experiment [12] it was 0.83; in experiment [14] it was 0.456. Besides, the “combination Emax” value in experiment [15] worked out at 0.52.

Take `O=C(c1cc(Cc2n[nH]c(=O)c3ccccc23)ccc1F)N1CCN(C(=O)C2CC2)CC1` [Olaparib] + Cc1c2c(nn1C)CSCc1cc(n(C)n1)CSc1cc(c3ccccc3c1)OCCCc1c(C(=O)O)n(C)c3c-2c(Cl)ccc13 [AZD5991] (first compound max 10 µM, 7x7, partner max 1 µM): the “combination Emax” value in [1] turned out to be 0.161; in experiment [2] it was 0.272; in [4], 0.0994; in [5], 0.212; in [6] it was 0.763; in experiment [7], 1. For the same molecule, the “combination Emax” value in experiment [8] is 0.192; in experiment [9] it was 0.562; in [10], 0.2; in experiment [11], 0.187; in experiment [12] it was 0.384; in experiment [14], 0.482. Moreover, in experiment [15], the “combination Emax” value is 0.0799.

For the molecule `CCc1c2c(nc3ccc(O)cc13)-c1cc3c(c(=O)n1C2)COC(=O)[C@]3(O)CC` [SN-38] + O=C(c1cc(Cc2n[nH]c(=O)c3ccccc23)ccc1F)N1CCN(C(=O)C2CC2)CC1 [Olaparib] (first compound max 0.3 µM, 7x7, partner max 10 µM), the “combination Emax” value amounted to 0.935 in experiment [1]; 0.566 in experiment [2]; 0.373 in [4]; 0.928 in experiment [16]; 1 in experiment [17]; 0.868 in experiment [5]. The “combination Emax” value in experiment [6] was found to be 0.962; in experiment [7], 0.952; in [8], 0.668; in experiment [9], 0.703; in experiment [10], 0.87; in experiment [18] it was 0.746. For the same molecule, the “combination Emax” value stood at 0.58 in experiment [11]; 0.858 in experiment [12]; 0.818 in [19]; 0.937 in [14]; 0.465 in experiment [15].

On to `Cc1nc(-c2cn3c(n2)-c2ccc(-c4cnn(C(C)(C)C(N)=O)c4)cc2OCC3)n(C(C)C)n1` [Taselisib] + O=C(Nc1ccc2[nH]nc(-c3ccncc3)c2c1)[C@@H]1CCN(CC(=O)N2CCN(c3ccc(-c4ncccn4)cc3)CC2)C1 [SCH772984] (first compound max 10 µM, 7x7, partner max 5 µM), for which the “combination Emax” value is 0.797 in experiment [1]; 0.693 in experiment [2]; 0.773 in experiment [4]; 0.938 in experiment [5]; 0.894 in experiment [6]; 0.761 in experiment [7]. For the same molecule, the “combination Emax” value stood at 0.516 in experiment [8]; 0.892 in experiment [9]; 0.991 in [10]; 0.932 in [11]; 0.561 in experiment [12]; 0.763 in experiment [14]. The “combination Emax” value in [15] is 0.905.

With `CC1(C)CCC(CN2CCN(c3ccc(C(=O)NS(=O)(=O)c4ccc(NCC5CCOCC5)c([N+](=O)[O-])c4)c(Oc4cnc5[nH]ccc5c4)c3)CC2)=C(c2ccc(Cl)cc2)C1` [Venetoclax] + CS(=O)(=O)CCNCc1ccc(-c2ccc3ncnc(Nc4ccc(OCc5cccc(F)c5)c(Cl)c4)c3c2)o1 [Lapatinib] (first compound max 1 µM, 7x7, partner max 10 µM), the “combination Emax” value in [1] stood at 0.272; in experiment [2], 0.207; in experiment [4] it was 0.516; in experiment [5], 0.777; in experiment [6], 0.549; in experiment [7], 0.882. The “combination Emax” value in experiment [8] turned out to be 0.459; in experiment [9], 0.108; in [10] it was 0.207; in [11] it was 0.0901; in [12], 0.117; in [14], 0.304. The “combination Emax” value in experiment [15] was found to be 0.291.
